This note sets out measurements from ChEMBL document CHEMBL1201862, “PubChem BioAssay data set” (2004).

Among the test systems are A498; COLO 205; DU-145; HL-60; IGROV-1; M14; MCF7; MDA-MB-435; MDA-N; PC-3; RXF 393; SF-539; SR; T47D; KM12; LOX IMVI; NCI/ADR-RES; SK-MEL-28; SNB-19.
What all share (experiment): growth of human tumour cells (NCI), 48 h

Structures are written as SMILES.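 Grown in 96-well plates, cells were treated for 48 hours with each compound at five concentrations. Insufficient inhibition: endpoint recorded as highest concentration tested. Here, GI50 denotes the concentration required for 50% inhibition of growth.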 Activity calls are given as the source filed them. Rule as the data show it: active = GI50 up to about 1.1 µM and inactive = higher.

As to `COc1c(-c2cccs2)oc2c(CC(=O)O)cccc2c1=O`, the GI50 in the assay with A498 was 86.3 µM (inactive); in the assay on COLO 205, > 100 µM (inactive); in the assay with DU-145 it was > 100 µM (inactive); with HL-60 it was 0.0702 µM (active); with IGROV-1 it was > 100 µM (inactive); in the assay with M14, > 100 µM (inactive). Further, the GI50 in the assay with MCF7, with MDA-MB-435, in the assay with MDA-N, in the assay on PC-3, in the assay with RXF 393 and in the assay with SF-539 was > 100 µM (inactive) in each case. Also, the GI50 with SR is 56 µM (inactive); with T47D it was > 100 µM (inactive).

For `COc1ccc2c(c1)CC1COc3cc(OC)ccc3C1O2` (centres undefined), the GI50 in the assay on A498, with COLO 205, in the assay with DU-145, with IGROV-1, in the assay on KM12 and with LOX IMVI was > 100 µM (inactive) in each case. The GI50 with M14 was > 100 µM (inactive); with MCF7, > 100 µM (inactive); with MDA-MB-435 it was > 100 µM (inactive); with MDA-N it was > 100 µM (inactive); in the assay on NCI/ADR-RES, 72.6 µM (inactive); with PC-3, 79.8 µM (inactive). Further, the GI50 in the assay on SF-539, with SR and in the assay on T47D was > 100 µM (inactive) in each case.

On to `O=C1OS2(OCc3cccc4cccc2c34)c2ccccc21` (centres undefined), for which the GI50 in the assay on A498, with COLO 205, with DU-145, in the assay with HL-60, in the assay with IGROV-1 and in the assay with KM12 was > 100 µM (inactive) each time. For the same compound, the GI50 with LOX IMVI, in the assay on M14, in the assay on MCF7, in the assay with MDA-MB-435, in the assay with MDA-N and with NCI/ADR-RES was > 100 µM (inactive) in each case. Further, the GI50 with PC-3, with SF-539, in the assay on SK-MEL-28, in the assay on SNB-19, in the assay with SR and in the assay on T47D was > 100 µM (inactive) in each case.

`C1CSC[C@H]2COC[C@@H](CSCCS1)S2`: the GI50 with COLO 205, in the assay on DU-145, with HL-60, with KM12, in the assay on LOX IMVI and in the assay on M14 was > 100 µM (inactive) throughout. The GI50 in the assay on MCF7, in the assay with MDA-MB-435, in the assay with MDA-N, in the assay with NCI/ADR-RES, in the assay with PC-3 and in the assay with SF-539 was > 100 µM (inactive) in each case. Further, the GI50 with SK-MEL-28, in the assay with SNB-19, in the assay on SR and in the assay with T47D was > 100 µM (inactive) throughout.

As for `COc1cc(OC)cc(-c2nc3cc(F)ccc3s2)c1`, the GI50 with A498 is 19.1 µM (inactive); in the assay on COLO 205, 34.1 µM (inactive); with DU-145 it was 26.1 µM (inactive); with IGROV-1 it was 12.3 µM (inactive); in the assay with KM12, > 100 µM (inactive); in the assay on LOX IMVI it was 53.8 µM (inactive). In addition, the GI50 was 37.3 µM (inactive) in the assay on M14; 1.83 µM (inactive) with MCF7; > 100 µM (inactive) in the assay on MDA-MB-435; > 100 µM (inactive) in the assay with MDA-N; > 100 µM (inactive) with NCI/ADR-RES; 39.5 µM (inactive) in the assay on PC-3. Also, the GI50 in the assay on RXF 393 is 17 µM (inactive); with SF-539 it was 15.8 µM (inactive); in the assay with SNB-19, 16.9 µM (inactive); in the assay with T47D, 10.5 µM (inactive).
